In patent US11161831B2, “Methods and compositions for treatment of muscle wasting, muscle weakness, and/or cachexia” (Baylor College of Medicine, priority 2013, dated 2021):

Key:
[1] = tested on: mice with CKD; experiment: CKD-induced muscle wasting in mice (subtotal nephrectomy); assay type: in vivo
Protocol: FIGS. 21A-21G provides a small molecule inhibitor of Stat3 activation, C188-9, that blocks CKD-induced muscle wasting. FIG. 21A. Sham or CKD mice were treated with C188-9 or D5W (diluent) for 14 days. Representative western blots of p-Stat3, Stat3 and GAPDH from lysates of gastrocnemius muscles are shown (n=8 mice/group). FIG. 21B. Differences in body weights of pair-fed, sham or CKD mice treated with C188-9 or D5W at baseline and after 7 or 14 days of treatment (*p<0.05 vs. D5W sham). FIGS. 21C & 21D. Average weights of mixed fiber gastrocnemius and tibialis anterior (TA) muscles from both legs (n=7 mice/group). FIG. 21E. Cryosections of TA muscles were immunostained with anti-laminin to identify the muscle basement membrane. The myofiber areas were measured and the myofiber size distribution was calculated from the areas of ˜500 myofibers assessed by an observer blinded to treatment group (n=4 pairs of mice). FIG. 21F. Muscle force of each mouse studied in FIG. 3C was measured on four consecutive days (Experimental Procedures; n=7 mice/group). G&H. At 2 weeks of C188-9 or D5W treatment, protein synthesis (FIG. 21G) and degradation (FIG. 21H) were measured (n=8 pairs of mice; *p<0.05 vs. D5W). Values are means±SEM.
FIG. 23A. Representative western blots of the indicated proteins from lysates of gastrocnemius muscles of control (Stat3flox/flox) or Stat3 KO sham or CKD mice. FIGS. 23B & 23C. mRNAs of myostatin (FIG. 23B) and C/EBPδ in muscles of sham or CKD mice analyzed by RT-PCR (n=4 mice/group; *p<0.05 vs. Stat3flox/flox sham). FIG. 23D. Representative western blots of the indicated proteins in lysates of gastrocnemius muscles of STZ vs. WT control mice (n=5 pairs). FIG. 23E. Sham or CKD mice were treated with C188-9 or D5W (diluent) for 14 days. Representative western blots of indicated proteins from lysates of gastrocnemius muscles are shown (n=8 mice/group). FIGS. 23F & 23G. mRNA levels of myostatin (FIG. 23F) and C/EBPδ (FIG. 23G) analyzed by RT-PCR and corrected for GAPDH (n=3 mice/group: wild-type mice without CKD; sham mice treated with C188-9 or D5W; mice with CKD treated with C188-9 or D5W; *p<0.05 vs. WT non-CKD). Values are means±SEM. FIG. 6. C/EBPδ and myostatin mediate CKD or Stat3-induced muscle wasting. A. Body weights of wild type or homo- or hetero-C/EBPδ KO mice following creation of CKD. Values are expressed as a percentage of basal body weight (mean±SEM; n=9 for WT mice; n=11 for C/EBPδ−/−; n=11 for C/EBPδ+/− mice; *p<0.05 vs. WT CKD). FIG. 23B. Survival was calculated as the percentage of mice surviving at 3 weeks after CKD or after sham surgery (n=20 for WT; n=25 for C/EBPδ−/−; n=21 for C/EBPδ+/−; *p<0.05 vs. C/EBPδ−/− CKD). FIG. 23C. Average weights from both legs of red fiber (soleus) or white fiber (EDL) muscles (mean±SEM; n=10 mice/group; *p<0.05 vs. WT CKD). FIG. 23D. Representative western blots of p-Stat3 and myostatin from muscles of CKD or sham-operated mice of the following groups: C/EBPδ−/−, C/EBPδ+/− or control (WT). FIG. 23E. Cryosections of gastrocnemius muscles from mice that were transfected with lentivirus expressing Stat3C-GPF or GFP and treated with anti-myostatin inhibitor or PBS. The sections were immunostained with p-Smad2/3 (red, lower panel). […] FIG. 23F. GFP-positive areas in myofibers were measured and the mean myofiber sizes of each group are shown (left panel). The percentage of p-Smad2/3 positive nuclei to total nuclei was calculated (right panel; mean±SEM, *p<0.05 vs. GFP/PBS).
All animal experiments and procedures were approved by the Baylor College of Medicine Institutional Animal Care and Use Committee (IACUC). Subtotal nephrectomy was used to create CKD in mice (Zhang et al., 2011; May et al., 1987). To induce diabetes, 12-week-old Stat3^flox/flox and Stat3 KO mice were injected intraperitoneally with 2 doses of 150 mg/kg/d STZ (Sigma-Aldrich) in 0.1 M citrate buffer (pH 4). Control mice were injected with the citrate buffer. […]

[2] = tested on: mice; experiment: Maximum tolerated dose in mice; assay type: in vivo, mouse; settings: over 14 days, Tweardy et al, unpublished data
From the text: Presently, there are no clinically available drugs that directly target Stat3. Small molecule, drug development programs are initiated that target either the Stat3 homodimer interface or the Stat3 SH2 domain; the latter is required for Stat3 binding to phosphotyrosylpeptide ligands located within activated receptor complexes and within the Stat3 homodimer itself. Three candidate compounds (C3, C30 and C188) were identified; some identified single compounds including static (Schust et al., 2006), STA-21 (Song et al., 2005), S31-201 (Siddiquee et al., 2007) or LLL12 (Lin et al., 2010). Regarding LLL12, the evidence for direct inhibition of Stat3 vs. an upstream kinase was not presented. […] Regarding potency, neither the parent compounds identified by others nor derivatives of them are as potent as C188-9 (Bhasin et al., 2008; Zhang et al., 2010). In addition, compounds identified by others that have been tested in mice are not as well tolerated as C188-9 (Lin et al., 2009; Zhang et al., 2010); those compounds have a maximum tolerated dose of 5 mg/kg every 2 or 3 days compared to 100 mg/kg/day over 14 days for C188-9 (Tweardy et al, unpublished data). Thus, C188-9 has promise as a lead for development into a drug that could be administered safely to patients.

[3] = tested on: Janus kinases (Jak1, Jak2) or Src family kinases (Hck, Lyn or Srms); settings: 10 μM concentration; cited from earlier work
[4] = CKD mice, 6.25 mg/kg subcutaneously daily for 14 days vs. D5W
[5] = CKD mice, at 2 weeks, EDL muscles

For COc1ccc(S(=O)(=O)Nc2cc(-c3c(O)ccc4ccccc34)c(O)c3ccccc23)cc1 [C188-9], the body weights [1, 4] was “significantly greater”, the “level of p-Stat3 in muscle” value [1, 4] was “decreased” and the “Akt phosphorylation in muscle” value ([1]; CKD mice, 14 days) was “higher”. The “CKD-induced phosphorylation of p-Smad2/3” value ([1]; CKD mice, 14 days) was “blocked”, the grip strength ([1]; CKD mice, 14 days vs. D5W) was “improved grip strength” and the “C/EBPδ and myostatin proteins in muscle” value ([1]; CKD mice, 14 days, gastrocnemius lysates) was “decreased”. The “CKD-stimulated mRNA expressions of C/EBPδ and myostatin” value ([1]; CKD mice, RT-PCR) was “suppressed”, the “weights of gastrocnemius and tibialis anterior muscles” value ([1]; CKD mice, after 14 days vs. D5W) was “greater” and the muscle protein degradation [1, 5] was “decreased protein degradation”. For the same compound, the muscle protein synthesis [1, 5] was “improved muscle protein synthesis”, the “C/EBPδ or myostatin mRNAs or proteins in muscle” value ([1]; control mice without CKD) was “did not change” and the “food intake, body weight, muscle mass or grip strength” value ([1]; control, wild type mice without CKD) was “did not significantly affect”. The maximum tolerated dose [2] was 100 mg/kg/day and the “inhibition of upstream tyrosine kinases Jak1, Jak2, Hck, Lyn or Srms” value [3] was “did not inhibit”.
